Laboratory results: the CheMixHub viscosity set
“And” between values parts separate entries of the source, which are not always exact repeats. Equal values may be shown once.

C1=C[C@H]2[C@@H](C1)[C@H]1C=C[C@@H]2C1
101.2 kPa
Settings | viscosity [mPa·s]
293.15 K | 4.463
298.15 K | 3.918
303.15 K | 3.456
308.15 K | 3.126
313.15 K | 2.81
318.15 K | 2.539

Brc1ccccc1
Settings | viscosity
293.15 K, 101 kPa | 1.125 mPa·s
293.15 K, 101.33 kPa | 1.142 mPa·s
298.15 K, 101 kPa | 1.07 mPa·s and 1.068 mPa·s
303.15 K, 101.33 kPa | 0.985 mPa·s
313.15 K, 101.33 kPa | 0.895 mPa·s
318 K, 101.3 kPa | 0.8536 mPa·s
318 K, 101.33 kPa | 0.8536 mPa·s
318.15 K, 101 kPa | 0.7925 mPa·s and 0.836 mPa·s
323.15 K, 101 kPa | 0.784 mPa·s

OCC(F)(F)F
Settings | viscosity
293.15 K, 101 kPa | 2.11 mPa·s and 2.108 mPa·s
298 K, 101.3 kPa | 1.737 mPa·s
298.15 K, 100 kPa | 1.744 mPa·s
298.15 K, 101 kPa | 1.84 mPa·s and 1.722 mPa·s
298.15 K, 101.33 kPa | 1.73 mPa·s
303 K, 101.3 kPa | 1.357 mPa·s
303.15 K, 101 kPa | 1.62 mPa·s
303.15 K, 101.33 kPa | 1.53 mPa·s
308 K, 101.3 kPa | 1.201 mPa·s
308.15 K, 101 kPa | 1.43 mPa·s
308.15 K, 101.33 kPa | 1.35 mPa·s
313 K, 101.3 kPa | 1.054 mPa·s
313.15 K, 100 kPa | 1.23 mPa·s
313.15 K, 101 kPa | 1.27 mPa·s and 1.203 mPa·s
318.15 K, 100 kPa | 1.1 mPa·s
318.15 K, 101 kPa | 1.13 mPa·s
318.15 K, 101.33 kPa | 1.09 mPa·s
323.15 K, 100 kPa | 0.99 mPa·s and 0.948 mPa·s
323.15 K, 101 kPa | 1.02 mPa·s and 0.963 mPa·s

Ic1ccccc1
viscosity [mPa·s]
Settings | 293.15 K | 298.15 K | 308.15 K | 318.15 K | 323.15 K
101 kPa | – | 1.513 | 1.318 | 1.162 | 1.083
101.33 kPa | 1.736 | – | – | – | –

CC(=O)OCC(COC(C)=O)OC(C)=O
101.33 kPa
Settings | viscosity [mPa·s]
298 K | 16.31
303 K | 12.62
308 K | 10.03
313 K | 8.12
